According to patent US9902722B2, “Biaryl kinase inhibitors” (BRISTOL-MYERS SQUIBB COMPANY, priority 2014, dated 2018):
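Note: each compound tested across an eleven-point concentration series, with IC50 obtained through non-linear regression fitting.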

What follows are compounds tested against GST-Xa-hAAK1 (Homo sapiens (Human), UniProt Q2M2I8) (assay: AAK1 Kinase Assay). Conditions: bacterially expressed GST-Xa-hAAK1 3.5 nM; ATP 22 μM; peptide substrate 1.5 μM; 3 hours at room temperature; Caliper LabChip 3000.
Chain of GST-Xa-hAAK1 (Q2M2I8 whole entry): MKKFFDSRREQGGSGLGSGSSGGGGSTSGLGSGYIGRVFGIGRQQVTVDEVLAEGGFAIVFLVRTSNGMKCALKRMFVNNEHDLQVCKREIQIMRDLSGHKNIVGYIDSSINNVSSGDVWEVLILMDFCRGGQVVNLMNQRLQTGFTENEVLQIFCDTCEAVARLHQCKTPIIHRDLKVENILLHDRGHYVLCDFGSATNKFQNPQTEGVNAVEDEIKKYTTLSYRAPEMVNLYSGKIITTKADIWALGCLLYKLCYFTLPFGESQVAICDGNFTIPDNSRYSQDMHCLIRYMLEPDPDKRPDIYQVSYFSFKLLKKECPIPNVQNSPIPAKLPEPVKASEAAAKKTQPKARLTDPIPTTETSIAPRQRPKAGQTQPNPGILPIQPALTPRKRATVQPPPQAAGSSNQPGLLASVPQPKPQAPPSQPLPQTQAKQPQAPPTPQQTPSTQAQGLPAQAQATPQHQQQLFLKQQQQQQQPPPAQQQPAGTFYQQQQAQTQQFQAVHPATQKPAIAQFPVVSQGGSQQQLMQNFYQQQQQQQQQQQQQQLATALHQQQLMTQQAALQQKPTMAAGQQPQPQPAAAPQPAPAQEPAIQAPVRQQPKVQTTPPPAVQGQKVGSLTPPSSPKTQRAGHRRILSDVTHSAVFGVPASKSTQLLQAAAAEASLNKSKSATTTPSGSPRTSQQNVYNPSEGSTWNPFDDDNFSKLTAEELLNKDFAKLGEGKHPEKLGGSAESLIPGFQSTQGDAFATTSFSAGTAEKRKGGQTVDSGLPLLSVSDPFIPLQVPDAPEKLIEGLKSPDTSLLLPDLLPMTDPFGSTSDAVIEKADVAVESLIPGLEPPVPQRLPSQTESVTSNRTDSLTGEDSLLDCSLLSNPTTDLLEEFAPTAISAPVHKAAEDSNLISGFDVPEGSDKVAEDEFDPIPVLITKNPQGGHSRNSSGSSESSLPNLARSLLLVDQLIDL
Type: biochemical
`CC(C)C[C@](C)(N)COc1cnc(-c2ccnc3cc(C(F)(F)F)ccc23)cc1Cl` [Example 242, (S)-1-((4-chloro-6-(7-(trifluoromethyl)quinolin-4-yl)pyridin-3-yl)oxy)-2,4-dimethylpentan-2-amine] was tested, and the IC50 was 1.9 nM.
`Cc1cc(-c2ccnc3cc(C#N)ccc23)cnc1OC[C@@](C)(N)CC(C)C` [Example 96, (S)-4-(6-((2-amino-2,4-dimethylpentyl)oxy)-5-methylpyridin-3-yl)quinoline-7-carbonitrile] gave an IC50 of 3 nM.
`COC(=O)Nc1cc(-c2ccc(OC[C@@](C)(N)CC(C)C)c(OC(F)(F)F)c2)ccn1` [Example 26, (S)-methyl (4-(4-((2-amino-2,4-dimethylpentyl)oxy)-3-(trifluoromethoxy)phenyl)pyridin-2-yl)carbamate] gave an IC50 of 0.69 nM.
`CC(C)C[C@](C)(N)COc1ccc(-c2ccnc3cc(C(F)(F)F)ccc23)cc1C(F)(F)F` [Example 70, (S)-2,4-dimethyl-1-(2-(trifluoromethyl)-4-(7-(trifluoromethyl)quinolin-4-yl)phenoxy)pentan-2-amine] gave an IC50 of 2.3 nM.
`COC(=O)Nc1cc(-c2ccc(OC[C@@](C)(N)CC(C)C)c(C(F)F)n2)ccn1` [Example 117, (S)-methyl (5-((2-amino-2,4-dimethylpentyl)oxy)-6-(difluoromethyl)-[2,4′-bipyridin]-2′-yl)carbamate] showed an IC50 of 1 nM.
Work on `Cc1cc(-c2ccc(OC[C@@](C)(N)CC(C)C)c(C(F)(F)F)c2)c2ccccc2n1` [Example 216, (S)-2,4-dimethyl-1-(4-(2-methylquinolin-4-yl)-2-(trifluoromethyl)phenoxy)pentan-2-amine] yielded an IC50 of 25 nM.
In the case of `CC(=O)Nc1cc(-c2cc(F)c(OC[C@@H](N)CC(C)C)cc2F)ccn1` [Example 12, (S)—N-(4-(4-((2-amino-4-methylpentyl)oxy)-2,5-difluorophenyl)pyridin-2-yl)acetamide], the IC50 is reported as 1.6 nM.
With `Cc1cc(-c2cc(C)c(OC[C@@](C)(N)CC(C)C)cn2)ccn1` [Example 228, (S)-1-((2′,4-dimethyl-[2,4′-bipyridin]-5-yl)oxy)-2,4-dimethylpentan-2-amine] the IC50 was 22 nM.
`CC(=O)Nc1cc(-c2ccc(OC[C@@](C)(N)CC(C)C)c(F)c2)ccn1` [Example 27, (S)—N-(4-(4-((2-amino-2,4-dimethylpentyl)oxy)-3-fluorophenyl)pyridin-2-yl)acetamide] gave an IC50 of 1 nM.
`Cc1cc(-c2cc(C(F)F)c(OC[C@@](N)(CF)CC(C)C)cn2)ccn1` [Example 188, (R)-1-((4-(difluoromethyl)-2′-methyl-[2,4′-bipyridin]-5-yl)oxy)-2-(fluoromethyl)-4-methylpentan-2-amine] showed an IC50 of 92 nM.
`COC(=O)Nc1cc(-c2cc(C)c(OC[C@@](C)(N)CC(C)C)c(C)n2)ccn1` [Example 213, (S)-methyl (5-((2-amino-2,4-dimethylpentyl)oxy)-4,6-dimethyl-[2,4′-bipyridin]-2′-yl)carbamate] was tested, and the IC50 was 22 nM.
In the case of `Cc1cc(-c2ccnc(C(F)F)c2)ncc1OC[C@@](C)(N)CC(C)C` [Example 125, (S)-1-((2′-(difluoromethyl)-4-methyl-[2,4′-bipyridin]-5-yl)oxy)-2,4-dimethylpentan-2-amine], the IC50 is reported as 1.6 nM.
With `COC(=O)Nc1cc(-c2ccc(OCC3(CC(C)C)CNC3)c(C)n2)ccn1` [Example 108, methyl (5-((3-isobutylazetidin-3-yl)methoxy)-6-methyl-[2,4′-bipyridin]-2′-yl)carbamate] the IC50 was 106 nM.
In the case of `COC(=O)Nc1cc(-c2cc(C(F)(F)F)c(OC[C@](C)(N)CC(C)C)cn2)ccn1` [Example 166, (R)-methyl (5-((2-amino-2,4-dimethylpentyl)oxy)-4-(trifluoromethyl)-[2,4′-bipyridin]-2′-yl)carbamate], the IC50 is reported as 20 nM.
`COC(=O)Nc1cc(-c2ccc(OC[C@@](C)(N)CC(C)C)c(CN(C)C)c2)ccn1` [Example 112, (S)-methyl (4-(4-((2-amino-2,4-dimethylpentyl)oxy)-3-((dimethylamino)methyl)phenyl)pyridin-2-yl)carbamate] was tested, and the IC50 was 970 nM.
`CC(C)C[C@](C)(N)COc1ncc(-c2ccnc3ccccc23)cc1F` [Example 98, (S)-1-((3-fluoro-5-(quinolin-4-yl)pyridin-2-yl)oxy)-2,4-dimethylpentan-2-amine] was tested, and the IC50 was 10 nM.
`CC(C)C[C@](C)(N)COc1cnc(-c2ccnc(Cl)c2)cc1C(F)F` [Example 147, (S)-1-((2′-chloro-4-(difluoromethyl)-[2,4′-bipyridin]-5-yl)oxy)-2,4-dimethylpentan-2-amine] gave an IC50 of 0.56 nM.
Work on `Cc1nc(-c2ccnc3ccccc23)ccc1OC[C@@](C)(N)CC(C)C` [Example 81, (S)-2,4-dimethyl-1-((2-methyl-6-(quinolin-4-yl)pyridin-3-yl)oxy)pentan-2-amine] yielded an IC50 of 7.8 nM.
Work on `CC(C)C[C@](C)(N)COc1ncc(-c2ccnc3ccc(F)cc23)cc1C(F)F` [Example 200, (S)-1-((3-(difluoromethyl)-5-(6-fluoroquinolin-4-yl)pyridin-2-yl)oxy)-2,4-dimethylpentan-2-amine] yielded an IC50 of 1.2 nM.
In the case of `CC(C)C[C@](C)(N)COc1ccc(-c2ccnc3ccc(F)cc23)nc1C(F)F` [Example 127, (S)-1-((2-(difluoromethyl)-6-(6-fluoroquinolin-4-yl)pyridin-3-yl)oxy)-2,4-dimethylpentan-2-amine], the IC50 is reported as 6.2 nM.
For `CC(C)C[C@](C)(N)COc1ccc(-c2ccnc(Cl)c2)nc1C(F)F` [Example 158, (S)-1-((2′-chloro-6-(difluoromethyl)-[2,4′-bipyridin]-5-yl)oxy)-2,4-dimethylpentan-2-amine], the IC50 was 5.4 nM.
Work on `COC(=O)Nc1cc(-c2ccc(OC[C@@](C)(N)CC(C)C)c3ccccc23)ccn1` [Example 208, (S)-methyl (4-(4-((2-amino-2,4-dimethylpentyl)oxy)naphthalen-1-yl)pyridin-2-yl)carbamate] yielded an IC50 of 4.6 nM.
Compound `CCc1cc(-c2cc(C(F)F)c(OC[C@](C)(N)CC(C)C)cn2)ccn1` [Example 170, (R)-1-((4-(difluoromethyl)-2′-ethyl-[2,4′-bipyridin]-5-yl)oxy)-2,4-dimethylpentan-2-amine] has an IC50 of 285 nM.
`Cc1ccc2c(-c3ccc(OC[C@@](C)(N)CC(C)C)c(C#N)c3)ccnc2c1` [Example 102, (S)-2-((2-amino-2,4-dimethylpentyl)oxy)-5-(7-methylquinolin-4-yl)benzonitrile] gave an IC50 of 1.3 nM.
Compound `Cc1cc(-c2cc(C(F)(F)F)c(OC[C@@](C)(N)CC(C)C)cn2)ccn1` [Example 144, (S)-2,4-dimethyl-1-((2′-methyl-4-(trifluoromethyl)-[2,4′-bipyridin]-5-yl)oxy)pentan-2-amine] has an IC50 of 1.3 nM.
`CC(C)C[C@](C)(N)COc1ccc(-c2ccncc2F)cc1C(F)(F)F` [Example 47, (S)-1-(4-(3-fluoropyridin-4-yl)-2-(trifluoromethyl)phenoxy)-2,4-dimethylpentan-2-amine] showed an IC50 of 0.77 nM.
`CC(C)C[C@](C)(N)COc1cnc(-c2ccnc3ccccc23)cc1C(F)F` [Example 121, (S)-1-((4-(difluoromethyl)-6-(quinolin-4-yl)pyridin-3-yl)oxy)-2,4-dimethylpentan-2-amine] showed an IC50 of 0.3 nM.
For `Cc1nccc(-c2ccc(OC[C@@](C)(N)CC(C)C)c(C(F)F)n2)n1` [Example 139, (S)-1-((2-(difluoromethyl)-6-(2-methylpyrimidin-4-yl)pyridin-3-yl)oxy)-2,4-dimethylpentan-2-amine], the IC50 was 0.77 nM.
`CC(C)C[C@](C)(N)COc1ccc(-c2ccnc(Cl)c2F)nc1C(F)F` [Example 159, (S)-1-((2′-chloro-6-(difluoromethyl)-3′-fluoro-[2,4′-bipyridin]-5-yl)oxy)-2,4-dimethylpentan-2-amine] was tested, and the IC50 was 1.5 nM.
With `CC(C)C[C@](C)(N)COc1ccc(-c2ccnc(C(F)F)c2)cc1C(F)(F)F` [Example 35, (S)-1-(4-(2-(difluoromethyl)pyridin-4-yl)-2-(trifluoromethyl)phenoxy)-2,4-dimethylpentan-2-amine] the IC50 was 0.77 nM.
Work on `COC(=O)Nc1cc(-c2ccc(OC[C@@](C)(N)CC(C)C)c(Cl)n2)ccn1` [Example 66, (S)-methyl (5-((2-amino-2,4-dimethylpentyl)oxy)-6-chloro-[2,4′-bipyridin]-2′-yl)carbamate] yielded an IC50 of 0.65 nM.
For `CC(C)C[C@](N)(CF)COc1ccc(-c2ccnc(C(F)F)c2)nc1C(F)F` [Example 185, (R)-1-((2′,6-bis(difluoromethyl)-[2,4′-bipyridin]-5-yl)oxy)-2-(fluoromethyl)-4-methylpentan-2-amine], the IC50 was 66 nM.
`CC(C)C[C@](C)(N)COc1ccc(-c2ccnc3ccccc23)nc1Cl` [Example 83, (S)-1-((2-chloro-6-(quinolin-4-yl)pyridin-3-yl)oxy)-2,4-dimethylpentan-2-amine] was tested, and the IC50 was 1.8 nM.
`CC(C)C[C@](C)(N)COc1ccc(-c2ccnc(F)c2Cl)cc1C(F)(F)F` [Example 39, (S)-1-(4-(3-chloro-2-fluoropyridin-4-yl)-2-(trifluoromethyl)phenoxy)-2,4-dimethylpentan-2-amine] showed an IC50 of 3.2 nM.
In the case of `CC(=O)Nc1cc(-c2cc(F)c(OC[C@@H](N)CC(C)C)c(C(F)(F)F)c2)ccn1` [Example 11, (S)—N-(4-(4-((2-amino-4-methylpentyl)oxy)-3-fluoro-5-(trifluoromethyl)phenyl)pyridin-2-yl)acetamide], the IC50 is reported as 3.3 nM.
Work on `CC(=O)Nc1cc(-c2cc(F)c(OC[C@@H](N)CC(C)C)c(Cl)c2)ccn1` [Example 10, (S)—N-(4-(4-((2-amino-4-methylpentyl)oxy)-3-chloro-5-fluorophenyl)pyridin-2-yl)acetamide] yielded an IC50 of 10 nM.
With `CC(C)C[C@](C)(N)COc1ccc(-c2ccnc3ccncc23)cc1C(F)(F)F` [Example 85, (S)-1-(4-(1,6-naphthyridin-4-yl)-2-(trifluoromethyl)phenoxy)-2,4-dimethylpentan-2-amine] the IC50 was 0.32 nM.
Compound `CC(C)C[C@](N)(CF)COc1cnc(-c2ccnc(C(F)F)c2)cc1C(F)F` [Example 186, (R)-1-((2′,4-bis(difluoromethyl)-[2,4′-bipyridin]-5-yl)oxy)-2-(fluoromethyl)-4-methylpentan-2-amine] has an IC50 of 18 nM.
`COC(=O)Nc1cc(-c2ccc(OCC(C)(N)CC(C)C)c(C)c2)ccn1` (stereo not drawn) [Example 30, methyl (4-(4-((2-amino-2,4-dimethylpentyl)oxy)-3-methylphenyl)pyridin-2-yl)carbamate] showed an IC50 of 1.4 nM.
